According to the supplement of paper PMC10307832:

Key:
Assay in all cases: relative viability (nuclei count vs DMSO), 5 days (fraction); higher = more cells survive
[1] = compound: CN1CCN(CC1)C2=CC(=C(C=C2)NC3=NC=C4C(=N3)N(C5=CC=CC=C5C(=O)N4C)C)OC [XMD8-85] + CS(=O)(=O)CCNCc1ccc(-c2ccc3ncnc(Nc4ccc(OCc5cccc(F)c5)c(Cl)c4)c3c2)o1 [Lapatinib] (partner 2 µM)
Outline: (§1)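 Values are medians from duplicate plates. Each reflects relative viability, defined as the nuclei count of treated wells over that of vehicle wells. Lung cancer cell lines in 1536-well plates were pin-tool dosed one day after seeding with one drug alone or with a fixed anchor-drug dose plus five library-drug doses (not always all listed) in √10 steps, then fixed, stained and imaged at 4× after 5 days.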

[2] = compound: CN1CCN(CC1)C2=CC(=C(C=C2)NC3=NC=C4C(=N3)N(C5=CC=CC=C5C(=O)N4C)C)OC [XMD8-85] + O=C(c1cc(Cc2n[nH]c(=O)c3ccccc23)ccc1F)N1CCN(C(=O)C2CC2)CC1 [Olaparib] (partner 8 µM)
Outline: as §1

[3] = compound: CN1CCN(CC1)C2=CC(=C(C=C2)NC3=NC=C4C(=N3)N(C5=CC=CC=C5C(=O)N4C)C)OC [XMD8-85] + CC(C)C[C@H](NC(=O)[C@H](Cc1ccccc1)NC(=O)c1cnccn1)B(O)O [Bortezomib] (partner 0.002 µM)
Outline: as §1

[4] = compound: CN1CCN(CC1)C2=CC(=C(C=C2)NC3=NC=C4C(=N3)N(C5=CC=CC=C5C(=O)N4C)C)OC [XMD8-85] + Cc1cc(Nc2cc(N3CCN(C)CC3)nc(Sc3ccc(NC(=O)C4CC4)cc3)n2)n[nH]1 [Tozasertib] (partner 0.1 µM)
Outline: as §1

| Cell Line | relative viability ([1]; first compound 0.08 µM) | relative viability ([1]; first compound 0.253 µM) | relative viability ([1]; first compound 0.8 µM) | relative viability ([1]; first compound 2.53 µM) | relative viability ([1]; first compound 8 µM) | relative viability ([2]; first compound 0.08 µM) | relative viability ([2]; first compound 0.253 µM) | relative viability ([2]; first compound 0.8 µM) | relative viability ([2]; first compound 2.53 µM) | relative viability ([2]; first compound 8 µM) | relative viability ([3]; first compound 0.08 µM) | relative viability ([3]; first compound 0.253 µM) | relative viability ([3]; first compound 0.8 µM) | relative viability ([3]; first compound 2.53 µM) | relative viability ([4]; first compound 0.08 µM) | relative viability ([4]; first compound 0.253 µM) | relative viability ([4]; first compound 0.8 µM) | relative viability ([4]; first compound 2.53 µM) | relative viability ([4]; first compound 8 µM) | relative viability ([3]; first compound 8 µM) |
| --- | --- | --- | --- | --- | --- | --- | --- | --- | --- | --- | --- | --- | --- | --- | --- | --- | --- | --- | --- | --- |
| LC-2-ad | 1.03 | 0.976 | 0.984 | 1 | 0.702 | 0.771 | 0.687 | 0.701 | 0.581 | 0.415 | 1.04 | 0.976 | 0.99 | 0.921 | 0.411 | 0.429 | 0.47 | 0.33 | 0.34 | – |
| LCLC-97TM1 | 0.703 | 0.931 | 0.859 | 1.02 | 1.15 | 0.433 | 0.285 | 0.359 | 0.477 | 0.201 | 0.473 | 0.357 | 0.841 | 0.72 | 0.278 | 0.23 | 0.225 | 0.225 | 0.168 | 0.204 |
| LOU-NH91 | – | 0.736 | 0.76 | 0.761 | 0.57 | 0.944 | 0.922 | 0.917 | 0.92 | 0.695 | 0.448 | 0.466 | 0.488 | 0.489 | 0.644 | 0.631 | 0.636 | 0.669 | 0.419 | 0.4 |
| LU99A | 1.11 | 0.96 | 1.05 | 1.06 | 0.882 | 0.247 | 0.154 | 0.238 | 0.242 | 0.218 | 1.11 | 1.21 | 1.18 | 1.23 | 0.281 | 0.257 | 0.252 | 0.253 | 0.239 | 1 |
| LXF-289 | 0.887 | 0.855 | 0.892 | 0.903 | 0.818 | 0.972 | 1.08 | 1.09 | 0.94 | 0.915 | 0.977 | 0.999 | 0.97 | 1.04 | 0.194 | 0.216 | 0.171 | 0.142 | 0.166 | 0.978 |
| NCI-H23 | 0.949 | 1.05 | 1.09 | 1.08 | 0.969 | 0.313 | 0.308 | 0.302 | 0.282 | 0.254 | 0.977 | 0.836 | 1.09 | 1.21 | 0.492 | 0.369 | 0.34 | 0.272 | 0.209 | 0.853 |
| NCI-H322M | 0.507 | 0.569 | 0.593 | 0.585 | 0.522 | 0.912 | 0.795 | 0.899 | 0.71 | 0.647 | 1.36 | 1.22 | 1.3 | 1.46 | 0.427 | 0.496 | 0.462 | 0.451 | 0.436 | 1.04 |
| NCI-H460 | 0.551 | 0.84 | 1.27 | 1.29 | 0.406 | 0.284 | 0.448 | 0.435 | 0.35 | 0.213 | 0.924 | 0.999 | 1.2 | 0.956 | 0.445 | 0.339 | 0.445 | 0.329 | 0.0548 | 0.75 |
| NCI-H520 | 0.825 | 0.749 | 1.03 | 0.906 | 0.756 | 0.343 | 0.366 | 0.293 | 0.305 | 0.236 | 0.491 | 0.51 | 0.772 | 0.507 | 0.388 | 0.414 | 0.44 | 0.406 | 0.341 | 0.205 |
| NCI-H596 | 1.01 | 1.03 | 1.24 | 1.03 | 0.874 | 0.696 | 0.602 | 0.702 | 0.49 | 0.467 | 0.838 | 0.903 | 1.22 | 1.09 | 0.75 | 0.834 | 0.975 | 0.728 | 0.488 | 0.899 |
| NCI-H647 | 1.08 | 1.09 | 1.24 | 1.48 | 0.638 | 0.573 | 0.378 | 0.605 | 0.408 | 0.118 | 1.15 | 0.778 | 1.13 | 0.924 | 0.173 | 0.195 | 0.29 | 0.202 | 0.0891 | 0.515 |
| NCI-H650 | 0.867 | 0.858 | 1.04 | 0.876 | – | 0.403 | 0.395 | 0.375 | 0.387 | 0.279 | 0.778 | 0.855 | 0.854 | 0.858 | 0.738 | 0.713 | 0.68 | 0.608 | 0.338 | 0.27 |
| NCI-H661 | 0.486 | 0.485 | 0.404 | – | 0.473 | 0.798 | 0.795 | 0.768 | 0.854 | 0.525 | 0.732 | 0.927 | – | 0.802 | 0.383 | 0.346 | 0.366 | 0.353 | 0.392 | 0.728 |
| NCI-H727 | 0.627 | 0.792 | – | 0.731 | 0.543 | 0.684 | 0.674 | 0.867 | 0.725 | 0.684 | 0.64 | 0.727 | 1.34 | 1.3 | 0.55 | 0.588 | 0.6 | 0.458 | 0.47 | 0.452 |
| NCI-H838 | 0.942 | 1.05 | 1.09 | 0.967 | 0.45 | 0.796 | 0.749 | 0.898 | 0.778 | 0.279 | 0.714 | 0.696 | 1.02 | 0.892 | 0.291 | 0.305 | 0.267 | 0.25 | 0.165 | 0.489 |
| NCI-H1355 | 0.956 | 1.03 | 1.01 | 1.08 | 0.875 | 0.744 | 0.79 | 0.714 | 0.657 | 0.589 | 1.28 | 1.26 | 1.13 | 1.21 | 0.473 | 0.467 | 0.525 | 0.376 | 0.314 | 1.11 |
